Experimental data: ChEMBL document CHEMBL1201862, “PubChem BioAssay data set” (2004)
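Protocol summary: plate cells (96-well), add compound at 5 concentrations, incubate 48 h, interpolate endpoints linearly. Here, GI50 denotes the concentration required for 50% inhibition of growth.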 Active and inactive are the calls of the source. Cut-off read from the data, not from the text of the source: active = GI50 up to about 1.1 µM and inactive = higher.

Columns and labels:
Assay in all cases: NCI-60 cell line screen, 48 h
LOX IMVI = system: LOX IMVI
RXF 393 = system: RXF 393
HCT-116 = system: HCT-116
SR = system: SR
OVCAR-4 = system: OVCAR-4
SK-MEL-5 = system: SK-MEL-5
M14 = system: M14
SK-MEL-2 = system: SK-MEL-2
UACC-257 = system: UACC-257
SF-268 = system: SF-268
SF-539 = system: SF-539
TK-10 = system: TK-10
HCC 2998 = system: HCC 2998
U-251 = system: U-251
KM12 = system: KM12
SNB-19 = system: SNB-19
SN12C = system: SN12C
NCI-H460 = system: NCI-H460
EKVX = system: EKVX
CCRF-CEM = system: CCRF-CEM

Row | SMILES | GI50 (LOX IMVI) | GI50 (RXF 393) | GI50 (HCT-116) | GI50 (SR) | GI50 (OVCAR-4) | GI50 (SK-MEL-5) | GI50 (M14) | GI50 (SK-MEL-2) | GI50 (UACC-257) | GI50 (SF-268) | GI50 (SF-539) | GI50 (TK-10) | GI50 (HCC 2998) | GI50 (U-251) | GI50 (KM12) | GI50 (SNB-19) | GI50 (SN12C) | GI50 (NCI-H460) | GI50 (EKVX) | GI50 (CCRF-CEM)
1 | O=C(CCc1ccc(O)c(O)c1)OCCc1ccccc1 | 22.5 µM (inactive) | > 67 µM (inactive) | 44.6 µM (inactive) | 17.6 µM (inactive) | 29.6 µM (inactive) | 42.2 µM (inactive) | 67.3 µM (inactive) | > 100 µM (inactive) | > 82.2 µM (inactive) | > 100 µM (inactive) | 18.6 µM (inactive) | > 100 µM (inactive) | > 100 µM (inactive) | > 100 µM (inactive) | > 100 µM (inactive) | > 100 µM (inactive) | > 61.1 µM (inactive) | > 100 µM (inactive) | > 100 µM (inactive) | 4.86 µM (inactive)
2 | CSC1=Nc2ccccc2N(C)c2c1c(-c1ccccc1)nn2C | 29.1 µM (inactive) | 15.6 µM (inactive) | 22.1 µM (inactive) | 16.1 µM (inactive) | 43.1 µM (inactive) | 17.8 µM (inactive) | 41.9 µM (inactive) | 23.2 µM (inactive) | 73.1 µM (inactive) | 17 µM (inactive) | 63.7 µM (inactive) | 66.8 µM (inactive) | 13.3 µM (inactive) | 31.4 µM (inactive) | 21.8 µM (inactive) |  | 54.5 µM (inactive) | 21.9 µM (inactive) | 65.5 µM (inactive) | 22.1 µM (inactive)
3 | O=c1oc2ccccc2cc1-c1cn2cc(Cl)ccc2n1 | 0.698 µM (active) | 2.28 µM (inactive) | 0.448 µM (active) | 0.0687 µM (active) | 2.46 µM (inactive) | 0.782 µM (active) | 0.544 µM (active) | 3.27 µM (inactive) | 4.58 µM (inactive) | 1.44 µM (inactive) | 1.48 µM (inactive) | 7.53 µM (inactive) | 1.13 µM (inactive) | 0.653 µM (active) | 0.296 µM (active) | 0.494 µM (active) | 2.98 µM (inactive) | 0.488 µM (active) | 21.6 µM (inactive) | 
4 | C[C@@]12CCC(=O)C=C1CC[C@H]1C2=CC[C@]2(C)C1CC[C@@]2(C)O (stereo not given in full) | > 100 µM (inactive) | > 100 µM (inactive) | 52 µM (inactive) | 34.8 µM (inactive) | 25.2 µM (inactive) | 41.6 µM (inactive) | 50.6 µM (inactive) | 38 µM (inactive) | 69.2 µM (inactive) | 75.2 µM (inactive) | 61.9 µM (inactive) | > 100 µM (inactive) | 49 µM (inactive) | 41.3 µM (inactive) | 29.7 µM (inactive) | > 100 µM (inactive) | 88.7 µM (inactive) | 43.6 µM (inactive) | > 100 µM (inactive) | 40.4 µM (inactive)
5 | CCOC(=O)C1C(=O)CN2CCc3c([nH]c4ccccc34)C12C(=O)OCC (stereo not given) | > 100 µM (inactive) | > 100 µM (inactive) | > 100 µM (inactive) | > 100 µM (inactive) | > 100 µM (inactive) | > 100 µM (inactive) | > 100 µM (inactive) | > 100 µM (inactive) | > 100 µM (inactive) | > 100 µM (inactive) | > 100 µM (inactive) | > 100 µM (inactive) | > 100 µM (inactive) | > 100 µM (inactive) | > 100 µM (inactive) | > 100 µM (inactive) | > 100 µM (inactive) | > 100 µM (inactive) | > 100 µM (inactive) | > 100 µM (inactive)
6 | O=[N+]([O-])/C=C/c1cn(CCCCCCCCn2cc(/C=C/[N+](=O)[O-])c3ccccc32)c2ccccc12 | 3.51 µM (inactive) | > 10 µM (inactive) | 0.211 µM (active) | > 10 µM (inactive) | > 10 µM (inactive) | > 10 µM (inactive) | > 10 µM (inactive) | > 10 µM (inactive) | > 10 µM (inactive) | > 10 µM (inactive) | > 10 µM (inactive) | > 10 µM (inactive) | 7.59 µM (inactive) |  | > 10 µM (inactive) | > 10 µM (inactive) | > 10 µM (inactive) | > 10 µM (inactive) | > 10 µM (inactive) | > 10 µM (inactive)
7 | O=S(=O)(N/N=C/c1c(Cl)cccc1Cl)c1ccccc1 | > 100 µM (inactive) | 55.5 µM (inactive) | > 100 µM (inactive) | > 100 µM (inactive) | > 100 µM (inactive) | > 100 µM (inactive) | > 100 µM (inactive) | > 100 µM (inactive) | > 100 µM (inactive) | > 100 µM (inactive) | > 100 µM (inactive) | > 100 µM (inactive) | > 100 µM (inactive) | 50.7 µM (inactive) | > 100 µM (inactive) |  | > 100 µM (inactive) | > 100 µM (inactive) | > 100 µM (inactive) | 66.1 µM (inactive)
8 | N#CCC(=O)N/N=C1\C(=O)N(c2ccc(Cl)cc2)C(=O)C(=O)C1c1nc2ccccc2o1 (stereo not given) |  | > 100 µM (inactive) | > 100 µM (inactive) | > 100 µM (inactive) | > 100 µM (inactive) | > 100 µM (inactive) | > 100 µM (inactive) | > 100 µM (inactive) | > 100 µM (inactive) | > 100 µM (inactive) | > 100 µM (inactive) | > 100 µM (inactive) | > 100 µM (inactive) | > 100 µM (inactive) | > 100 µM (inactive) | > 100 µM (inactive) | > 100 µM (inactive) | > 100 µM (inactive) | > 100 µM (inactive) | > 100 µM (inactive)
9 | Cc1ccc(S(=O)(=O)OC(COC(=O)c2ccccc2)C(OS(=O)(=O)c2ccc(C)cc2)C(OS(=O)(=O)c2ccc(C)cc2)C(COC(=O)c2ccccc2)OS(=O)(=O)c2ccc(C)cc2)cc1 (stereo not given) | > 100 µM (inactive) | > 100 µM (inactive) | > 100 µM (inactive) | > 100 µM (inactive) | > 100 µM (inactive) | > 100 µM (inactive) | > 100 µM (inactive) | > 100 µM (inactive) | > 100 µM (inactive) | > 100 µM (inactive) | > 100 µM (inactive) | > 100 µM (inactive) | > 100 µM (inactive) | > 100 µM (inactive) | > 100 µM (inactive) | > 100 µM (inactive) | > 100 µM (inactive) | > 100 µM (inactive) | > 100 µM (inactive) | > 100 µM (inactive)
10 | Oc1ccccc1C1C=C(c2ccccc2)NC(N2CCCCC2)=C1c1nc2ccccc2[nH]1 (stereo not given) | 17 µM (inactive) | 11.4 µM (inactive) | 11.7 µM (inactive) | 12.4 µM (inactive) | 13.3 µM (inactive) | 13.9 µM (inactive) | 13 µM (inactive) |  | 16 µM (inactive) | 13.2 µM (inactive) | 15.9 µM (inactive) | 19.9 µM (inactive) | 3.08 µM (inactive) | 15.1 µM (inactive) | 16.6 µM (inactive) | 15 µM (inactive) | 16.1 µM (inactive) | 14.3 µM (inactive) | 6.11 µM (inactive) | 17.1 µM (inactive)
11 | CCN(CC)c1ccc2cc(C(=O)Nc3nc(C45CC6CC(CC(C6)C4)C5)cs3)c(=O)oc2c1 | > 100 µM (inactive) | > 100 µM (inactive) | > 100 µM (inactive) | > 100 µM (inactive) | > 100 µM (inactive) | > 100 µM (inactive) |  |  | > 100 µM (inactive) | > 100 µM (inactive) | > 100 µM (inactive) | > 100 µM (inactive) | > 100 µM (inactive) | > 100 µM (inactive) | > 100 µM (inactive) | > 100 µM (inactive) | > 100 µM (inactive) | > 100 µM (inactive) | > 100 µM (inactive) | > 100 µM (inactive)
12 | C[C@@H]1O[C@]2(O)[C@@H]3CCCN3S(=O)(=O)CCN2C1=O | > 100 µM (inactive) | > 100 µM (inactive) | > 100 µM (inactive) | > 100 µM (inactive) | > 100 µM (inactive) | > 100 µM (inactive) | > 100 µM (inactive) |  | > 100 µM (inactive) | > 100 µM (inactive) | > 100 µM (inactive) | > 100 µM (inactive) | > 100 µM (inactive) | > 100 µM (inactive) | > 100 µM (inactive) | > 100 µM (inactive) | > 100 µM (inactive) | > 100 µM (inactive) | > 100 µM (inactive) | > 100 µM (inactive)
13 | COc1ccc(-c2cc(=O)c3c(OC)c(O)c(OC)cc3o2)cc1 | 36.9 µM (inactive) | 36.6 µM (inactive) | 46.8 µM (inactive) | 73.8 µM (inactive) | 40.4 µM (inactive) | 23.4 µM (inactive) | 58.3 µM (inactive) | 57.1 µM (inactive) | 36.1 µM (inactive) | 91.4 µM (inactive) | 77.4 µM (inactive) | 28.3 µM (inactive) | 47 µM (inactive) | 63.1 µM (inactive) |  | 58.7 µM (inactive) | 26.9 µM (inactive) | 32.8 µM (inactive) | 50.8 µM (inactive) | 38.4 µM (inactive)
14 | Cc1ccc2c(O)cc(-c3ccccc3)nc2n1 | 0.116 µM (active) | 0.127 µM (active) | 0.0507 µM (active) | < 0.0306 µM (active) | 5.24 µM (inactive) | 0.0512 µM (active) | 0.0643 µM (active) | 0.103 µM (active) | 0.285 µM (active) | 1.56 µM (inactive) | 0.191 µM (active) | 0.12 µM (active) | 0.157 µM (active) | 0.0875 µM (active) | 0.0304 µM (active) | 0.309 µM (active) | 0.416 µM (active) | 0.0574 µM (active) | 1.74 µM (inactive) | 0.0887 µM (active)
